Experimental data as given in US20100068204A1, “4-ARYLOXYQUINOLIN-2(1H)-ONES AS MTOR KINASE AND PI3 KINASE INHIBITORS, FOR USE AS ANTI-CANCER AGENTS” (Wyeth, priority 2008, published 2010).

Legend:
[1] = molecular target: human TOR (FLAG-TOR) (Homo sapiens, UniProt P42345); assay: mTOR enzyme assay (DELFIA format, purified enzyme); format: biochemical; settings: 800 ng/ml FLAG-TOR, 100 μM ATP, 1.25 μM His6-S6K; read-out: mTOR Kinase IC50
[2] = molecular target: PI3Kα (Homo sapiens, UniProt P42336); assay: PI3Kα fluorescence polarization assay; format: biochemical; settings: 20 μM PIP2, 25 μM ATP
Chain of PI3Kα (P42336 whole entry, species assumed): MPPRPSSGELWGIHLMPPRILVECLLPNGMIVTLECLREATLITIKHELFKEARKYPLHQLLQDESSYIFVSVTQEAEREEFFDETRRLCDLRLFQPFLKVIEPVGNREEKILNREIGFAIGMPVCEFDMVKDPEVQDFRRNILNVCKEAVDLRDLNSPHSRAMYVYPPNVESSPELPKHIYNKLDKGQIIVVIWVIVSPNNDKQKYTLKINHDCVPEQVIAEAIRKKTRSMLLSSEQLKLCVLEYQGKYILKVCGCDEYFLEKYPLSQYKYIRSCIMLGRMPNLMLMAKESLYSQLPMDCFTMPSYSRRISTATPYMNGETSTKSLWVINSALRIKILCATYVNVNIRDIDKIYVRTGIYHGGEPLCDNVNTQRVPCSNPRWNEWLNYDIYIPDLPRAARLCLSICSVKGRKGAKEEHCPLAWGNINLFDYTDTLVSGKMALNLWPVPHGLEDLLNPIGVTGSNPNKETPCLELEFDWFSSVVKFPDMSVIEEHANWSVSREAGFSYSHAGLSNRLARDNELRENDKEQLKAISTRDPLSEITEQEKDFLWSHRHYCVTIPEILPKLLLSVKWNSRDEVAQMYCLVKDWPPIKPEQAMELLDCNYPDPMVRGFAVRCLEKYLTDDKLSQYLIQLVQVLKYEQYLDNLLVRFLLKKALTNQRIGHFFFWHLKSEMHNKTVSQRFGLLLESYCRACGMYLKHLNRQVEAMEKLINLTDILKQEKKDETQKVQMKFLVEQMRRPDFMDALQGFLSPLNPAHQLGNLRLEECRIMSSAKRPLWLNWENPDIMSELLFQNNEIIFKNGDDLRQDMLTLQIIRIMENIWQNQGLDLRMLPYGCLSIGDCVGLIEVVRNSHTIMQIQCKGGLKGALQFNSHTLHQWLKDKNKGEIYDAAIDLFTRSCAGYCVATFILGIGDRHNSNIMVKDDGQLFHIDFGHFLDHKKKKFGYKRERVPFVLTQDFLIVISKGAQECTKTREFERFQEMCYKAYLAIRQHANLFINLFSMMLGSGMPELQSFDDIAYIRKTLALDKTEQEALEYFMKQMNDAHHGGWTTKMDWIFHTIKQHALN
Chain of PI3Kα (P27986 whole entry partner, species assumed): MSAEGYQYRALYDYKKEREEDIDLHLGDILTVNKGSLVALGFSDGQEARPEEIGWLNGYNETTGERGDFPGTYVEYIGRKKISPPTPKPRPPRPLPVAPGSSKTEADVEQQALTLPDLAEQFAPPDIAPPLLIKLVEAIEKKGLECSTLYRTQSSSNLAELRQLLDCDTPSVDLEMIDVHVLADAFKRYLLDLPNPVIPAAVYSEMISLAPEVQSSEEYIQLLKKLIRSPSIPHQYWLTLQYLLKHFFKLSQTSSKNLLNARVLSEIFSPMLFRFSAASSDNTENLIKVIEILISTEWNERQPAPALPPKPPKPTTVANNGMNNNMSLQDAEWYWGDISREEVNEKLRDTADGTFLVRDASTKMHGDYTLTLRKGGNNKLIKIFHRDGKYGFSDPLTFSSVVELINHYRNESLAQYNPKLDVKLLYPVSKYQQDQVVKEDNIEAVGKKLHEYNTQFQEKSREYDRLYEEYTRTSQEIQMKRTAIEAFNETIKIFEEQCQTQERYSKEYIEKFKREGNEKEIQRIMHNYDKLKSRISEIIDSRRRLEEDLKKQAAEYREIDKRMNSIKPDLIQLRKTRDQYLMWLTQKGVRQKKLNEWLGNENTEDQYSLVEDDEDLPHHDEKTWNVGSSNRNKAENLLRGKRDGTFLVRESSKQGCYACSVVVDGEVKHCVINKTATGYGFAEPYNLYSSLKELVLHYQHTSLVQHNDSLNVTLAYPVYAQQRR
Experimental: The reaction buffer was 20 mM HEPES pH7.5, 2 mM MgCl2, 0.05% CHAPS, and 0.01% βME (added fresh). The substrate solution was 40 μM PIP2 (diC8, Echelon, Salt Lake City Utah cat #P-4508, 1 mM in water) and 50 μM ATP in the reaction buffer. Nunc 384-well black polypropylene fluorescent plates were used for PI3K assays. The assay is run by putting 9.5 μl of freshly diluted enzyme in the reaction buffer per well, adding 0.5 μl of diluted drug or DMSO, and mixing. Then 10 μl of the substrate solution is added to each well to start the reaction. A final concentration of 20 μM PIP2 and 25 μM ATP in the reaction was used. Reactions were allowed to proceed for 30-60 minutes at room temperature. After 30-60 minutes, 20 μl of a solution of 10 nM TAMRA detector (Red detector probe-Echelon) and 2.5 uM of GST-murine GRP (1.5 mg/ml in 17% glycerol) was added per well to stop the reaction. The resulting solution was mixed well and allowed to stand for 90-110 minutes before reading plate. Assay Plates were read on Perkin-Elmer Envision plate readers with appropriate filters for Tamra [BODIPY-TMRI(1,3,4,5)P4]. Data obtained were used to calculate enzymatic activity and enzyme inhibition by inhibitor compounds. It is important to keep Red probe solutions dark. This procedure is adapted from Echelon Biosciences Inc procedure for their PI3-Kinase fluorescence polarization activity Assay kit Product number K-1100.

[3] = system: LNCap prostate tumor cells; assay: In vitro cell growth assay (MTS), LNCap; format: cell-based, human; settings: Homo sapiens, LNCaP, 72 h, three days after drug treatment
Experimental: (§1) Cell lines used were human adenocarcinoma (LoVo), […], prostate (LNCap), breast (MDA468, MCF7), colon (HCT116), renal (HTB44 A498), and ovarian (OVCAR3) tumor cell lines. The tumor cells were plated in 96-well culture plates at approximately 3000 cells per well. One day following plating, various concentrations of inhibitors in DMSO were added to cells (final DMSO concentration in cell assays was 0.25%). Three days after drug treatment, viable cell densities were determined by cell mediated metabolic conversion of the dye MTS, a well-established indicator of cell proliferation in vitro. Cell growth assays were performed using kits purchased from Promega Corporation (Madison, Wis.), following the protocol provided by the vendor. Measuring absorbance at 490 nm generated MTS assay results. Compound effect on cell proliferation was assessed relative to untreated control cell growth.

[4] = system: MDA468 breast tumor cells; assay: In vitro cell growth assay (MTS), MDA468; format: cell-based, human; settings: Homo sapiens, 72 h, three days after drug treatment
Experimental: as §1

IC50 [1]	IC50 [2]	IC50 [3]	IC50 [4]	SMILES
0.13 µM	4.65 µM	3.4 µM	13 µM	O=c1cc(Oc2cccc(NCc3ccco3)c2)c2ccccc2[nH]1
> 20 µM	2.76 µM	> 60 µM	> 60 µM	O=c1cc(Oc2ccccc2)c2ccc(-c3cn[nH]c3)cc2[nH]1
> 20 µM	2.17 µM	60 µM	60 µM	O=c1cc(Oc2ccc(-c3cn[nH]c3)cc2)c2ccccc2[nH]1
> 20 µM	> 10 µM	> 60 µM	> 60 µM	Cn1cc(-c2ccc3[nH]c(=O)cc(Oc4ccccc4)c3c2)cn1
0.71 µM	1.66 µM	> 60 µM	> 60 µM	O=c1cc(Oc2ccc(-c3cccc(O)c3)cc2)c2ccccc2[nH]1
0.69 µM	> 10 µM	> 60 µM	> 60 µM	Cc1ccc(Oc2cc(=O)[nH]c3ccccc23)cc1C
> 20 µM	> 10 µM	> 60 µM	> 60 µM	CCOc1ccc(Oc2cc(=O)[nH]c3ccccc23)cc1
0.37 µM	> 10 µM	7 µM	60 µM	O=c1cc(Oc2cccc(-c3ccncc3)c2)c2ccccc2[nH]1
8.5 µM	7.44 µM	> 60 µM	> 60 µM	O=c1cc(Oc2ccccc2)c2cc(-c3cccnc3)ccc2[nH]1
0.08 µM	> 10 µM	3.2 µM	9.77 µM	O=c1cc(Oc2cccc(NCc3cccnc3)c2)c2ccccc2[nH]1
0.82 µM	> 10 µM	2.1 µM	3.9 µM	CN(C)CCCOc1ccc(-c2ccc(Oc3cc(=O)[nH]c4ccccc34)cc2)cn1
0.74 µM	> 10 µM	> 60 µM	18 µM	O=c1cc(Oc2ccc(I)cc2)c2ccccc2[nH]1
0.22 µM	3.67 µM	15 µM	11 µM	CC(=O)Nc1ccc(-c2cccc(Oc3cc(=O)[nH]c4ccccc34)c2)cc1
0.25 µM	8.48 µM	60 µM	> 60 µM	O=C(NCCO)Nc1ccc(-c2cccc(Oc3cc(=O)[nH]c4ccccc34)c2)cc1
0.1 µM	> 10 µM	7 µM	9 µM	CN(C)CCNC(=O)Nc1ccc(-c2cccc(Oc3cc(=O)[nH]c4ccccc34)c2)cc1
0.26 µM	> 10 µM	> 60 µM	60 µM	COCCNC(=O)Nc1ccc(-c2cccc(Oc3cc(=O)[nH]c4ccccc34)c2)cc1
0.34 µM	12 µM	6 µM	> 60 µM	O=c1cc(Oc2cccc(OCCO)c2)c2ccccc2[nH]1
0.49 µM	10.4 µM	13 µM	35 µM	O=c1cc(Oc2cccc(-c3ccc(N4CCOCC4)cc3)c2)c2ccccc2[nH]1
0.6 µM	6.83 µM	9.5 µM	30 µM	O=c1cc(Oc2cccc(-c3cccc(CN4CCOCC4)c3)c2)c2ccccc2[nH]1
3.7 µM	> 10 µM	> 60 µM	18 µM	CC(C)(C)OC(=O)N1CCN(c2ccc(-c3cccc(Oc4cc(=O)[nH]c5ccccc45)c3)cn2)CC1
0.65 µM	9.5 µM	13 µM	32 µM	CC(C)(C)OC(=O)N1CC=C(c2cccc(Oc3cc(=O)[nH]c4ccccc34)c2)CC1
1.3 µM	7 µM	> 60 µM	> 60 µM	O=c1cc(Oc2cccc(-c3ccc(NCc4cccnc4)cc3)c2)c2ccccc2[nH]1

The next lines start with the compound.

SMILES	IC50 [1]	IC50 [2]	IC50 [3]	IC50 [4]
O=c1cc(Oc2cccc(NCc3cncc(F)c3)c2)c2ccccc2[nH]1	0.05 µM	8.99 µM	1.9 µM	7.2 µM
O=c1cc(Oc2cccc(NCc3cccs3)c2)c2ccccc2[nH]1	0.08 µM	> 10 µM	5.4 µM	> 60 µM
Cn1cc(-c2ccc3c(Oc4ccccc4)cc(=O)[nH]c3c2)cn1	> 20 µM	4.63 µM	> 60 µM	> 60 µM
Cc1n[nH]c(C)c1-c1ccc(Oc2cc(=O)[nH]c3ccccc23)cc1	1.85 µM	6.95 µM	> 60 µM	> 60 µM
O=c1cc(Oc2ccc(-c3ccncc3)cc2)c2ccccc2[nH]1	0.24 µM	4.88 µM	1.9 µM	> 60 µM
Nc1ccc(-c2cccc(Oc3cc(=O)[nH]c4ccccc34)c2)cc1	0.29 µM	9.52 µM	11 µM	30 µM
O=c1cc(Oc2ccccc2)c2cc(-c3cc[nH]n3)ccc2[nH]1	11.5 µM	1.02 µM	> 60 µM	40 µM
O=c1cc(Oc2ccc(OC(F)F)cc2)c2ccccc2[nH]1	1.04 µM	> 10 µM	5.5 µM	> 60 µM
O=c1cc(Oc2cccc(-c3cc[nH]n3)c2)c2ccccc2[nH]1	0.15 µM	6.67 µM	30 µM	60 µM
Nc1cccc(-c2cccc(Oc3cc(=O)[nH]c4ccccc34)c2)c1	0.17 µM	5.59 µM	8 µM	30 µM
CCN(CC)CCOc1cccc(Oc2cc(=O)[nH]c3ccccc23)c1	0.32 µM	> 10 µM	7 µM	28 µM
COc1ncc(-c2cccc(Oc3cc(=O)[nH]c4ccccc34)c2)c(OC)n1	0.28 µM	> 10 µM	> 60 µM	38 µM
CN1CCN(c2cc(-c3cccc(Oc4cc(=O)[nH]c5ccccc45)c3)ccn2)CC1	0.4 µM	> 10 µM	2.5 µM	4.05 µM
CN(C)CCCNC(=O)c1cccc(-c2cccc(Oc3cc(=O)[nH]c4ccccc34)c2)c1	0.5 µM	> 10 µM	4.3 µM	10 µM
Nc1cccc(Oc2cc(=O)[nH]c3cc(Cl)ccc23)c1	0.6 µM	6.73 µM	4.5 µM	> 60 µM
CN(C)CCc1ccc(Oc2cc(=O)[nH]c3ccccc23)cc1	3.23 µM	> 10 µM	8 µM	23 µM
O=C(NCCN1CCOCC1)Nc1ccc(-c2cccc(Oc3cc(=O)[nH]c4ccccc34)c2)cc1	0.22 µM	> 10 µM	7 µM	25 µM
CC(C)OC(=O)Nc1ccc(-c2cccc(Oc3cc(=O)[nH]c4ccccc34)c2)cc1	1.35 µM	> 10 µM	4 µM	5 µM
CN(C)CCNC(=O)c1ccc(-c2cccc(Oc3cc(=O)[nH]c4ccccc34)c2)cc1	0.24 µM	> 10 µM	6 µM	12 µM
O=C(NCCO)c1ccc(-c2cccc(Oc3cc(=O)[nH]c4ccccc34)c2)cc1	0.23 µM	> 10 µM	> 60 µM	> 60 µM
CN(C)CCNC(=O)c1cccc(-c2cccc(Oc3cc(=O)[nH]c4ccccc34)c2)c1	0.32 µM	> 10 µM	10 µM	10 µM
CC(C)(C)OCNC(=O)c1cccc(-c2cccc(Oc3cc(=O)[nH]c4ccccc34)c2)c1	2.38 µM	> 10 µM	6.6 µM	> 60 µM
O=c1cc(Oc2cccc(-c3ccc(N4CCOCC4)nc3)c2)c2ccccc2[nH]1	0.2 µM	> 10 µM	12 µM	> 60 µM
CC(C)(C)OC(=O)N1CCN(c2ccc(-c3cccc(Oc4cc(=O)[nH]c5ccccc45)c3)cc2)CC1	5.85 µM	9.89 µM	60 µM	44 µM
O=c1cc(Oc2cccc(-c3ccc(NCc4ccncc4)cc3)c2)c2ccccc2[nH]1	0.7 µM	5.25 µM	> 60 µM	> 60 µM
CN1CCC(Nc2ccc(-c3cccc(Oc4cc(=O)[nH]c5ccccc45)c3)cc2)CC1	0.05 µM	8 µM	2.8 µM	5 µM
